Results from patent US20120184562A1, “1,6- AND 1,8-NAPHTHYRIDINES” (priority 2011, published 2012).
pIC50: −log10 of the molar value. Structures can show the parent of a compound that is named as a salt. Where two headings read alike, the source gives them in different places.

How the values were obtained:
[1] = target: T1, Human DYRK1B (Homo sapiens, UniProt Q9Y463); assay: DYRK1B Kinase TR-FRET (IMAP-Tb) Assay; type: biochemical; settings: for IC50: TR-FRET (IMAP-Tb), ATP 70 μM, 37° C., 60 minutes, average of multiple runs, read-out: Enzyme IC50 (μM) DYRK1B
T1 construct: purchased Invitrogen PR8350B (former PV4649)
Text: DYRK1B Kinase TR-FRET (IMAP-Tb) Assay The kinase TR-FRET (IMAP-Tb) assay uses a fluorescence labeled substrate peptide in the kinase reaction. Upon phosphorylation by the kinase, phosphopeptide is produced, which will be detected by the binding solution provided in IMAP TR-FRET binding kit. After the completion of the kinase reaction, the reaction will be stopped by adding the binding solution containing terbium tracer. This tracer is immobilized on the surface of the IMAP beads, which also contain metal ions on the beads that bind to the phospho-groups of the products. Thus the phosphorylated product of the reaction can enter into close proximity to the tracer, producing resonance energy transfer. Due to the long lifetime of terbium (Tb) fluorescence the detection can be run in time resolved mode, which virtually eliminates fluorescence interference from assay components or compounds. The TR-FRET signal measurement from this assay, given as an IC50 measurement, is a measure of a test compound's ability to interfere with the phosphorylation of the peptide substrate, that is it inhibits the phosphorylation of the substrate peptide by DYRK1B, and is thus a measure of the test compound's ability to inhibit the activity of DYRK1B. […] Human DYRK1B: from Invitrogen. Part #PR8350B (former PV4649) • 2. Substrate Peptide: in-house synthesized: RRRFRPASPLRGPPK • 3. IMAP TR-FRET IPP Explorer Kit: from Molecular Devices. Part #R8157 • 4. Kinase Assay Buffer (KAB): 10 mM HEPES pH 7.0, 50 mM NaCl, 5 mM MgCl2, 1 mM DTT, 1 mM NaVO4, 200 μg/mL BSA (0.02%) • 5. Assay Plate: Remp polypropylene clear 384-well microplate. Cat#23490-102 • 6. Detection Plate: Costa black 384-well microplate. Cat #3710 Assay Procedure: This assay was performed as follows: • 1. Transfer 1.5 μL of 20× compound solution to each well of an assay plate. • 2. Add to each well 22.5 μL of KAB Buffer. • 3. Add to each well 3 μL of the solution of DYRK1B and ATP. […] Add to each well 3 μL of the substrate peptide. The assay concentration is 1.0 μM • 5. Incubate the assay plates at 37° C. for 60 minutes. • 6. Add 18 μL of Detection Solution (1:800 diluted Progress bead stock, 1:400 diluted Tb stock, 80% Buffer A, and 20% Buffer B) into each well of detection plates. • 7. Transfer 6 μL of assay solution from the assay plate to the detection plate. • 8. Shake detection plates for 30 minutes. • 9. Read plates in Envision with wavelength set at excitation 340 nm for Tb, emission 490 nm, and […] 520 nm. • 10. Calculation: TR-FRET Signal=(Reading at […]/Reading at 490 nM)×2000000

[2] = target: T2, Human DYRK1A (Homo sapiens, UniProt Q13627); assay: DYRK1A Kinase TR-FRET (IMAP-Tb) Assay; type: biochemical; settings: TR-FRET (IMAP-Tb); ATP 70 μM; 37° C., 60 minutes; average of multiple runs; read-out: Enzyme IC50 (μM) DYRK1A
T2 construct: purchased Invitrogen PV3997
Text: DYRK1A Kinase TR-FRET (IMAP-Tb) Assay
The kinase TR-FRET (IMAP-Tb) assay uses a fluorescence labeled substrate peptide in the kinase reaction. Upon phosphorylation by the kinase, phosphopeptide is produced, which will be detected by the binding solution provided in IMAP TR-FRET binding kit. After the completion of the kinase reaction, the reaction will be stopped by adding the binding solution containing terbium tracer. This tracer is immobilized on the surface of the IMAP beads, which also contain metal ions on the beads that bind to the phospho-groups of the products. Thus the phosphorylated product of the reaction can enter into close proximity to the tracer, producing resonance energy transfer. Due to the long lifetime of terbium (Tb) fluorescence the detection can be run in time resolved mode, which virtually eliminates fluorescence interference from assay components or compounds.
The TR-FRET signal measurement from this assay, given as an IC50 measurement, is a measure of a test compound's ability to interfere with the phosphorylation of the peptide substrate, that is it inhibits the phosphorylation of the substrate peptide by DYRK1A, and is thus a measure of the test compound's ability to inhibit the activity of DYRK1A.
• 1. Human DYRK1A: from Invitrogen. Part #PV3997 • 2. Substrate Peptide: […] • 3. IMAP TR-FRET IPP Explorer Kit: from Molecular Devices. Part #R8157 • 4. Kinase Assay Buffer (KAB): 10 mM HEPES pH 7.0, 50 mM NaCl, 5 mM MgCl2, 1 mM DTT, 1 mM NaVO4, 200 μg/mL BSA (0.02%) • 5. Assay Plate: Remp polypropylene clear 384-well microplate. […] Detection Plate: Costa black 384-well microplate. […] Transfer 1.5 μL of 20× compound solution to each well of an assay plate. • 2. Add to each well 22.5 μL of KAB Buffer. • 3. Add to each well 3 μL of the solution of DYRK1A and ATP. […] Add to each well 3 μL of the substrate peptide. The assay concentration is 1.0 μM • 5. Incubate the assay plates at 37° C. for 60 minutes. • 6. Add 18 μL of Detection Solution (1:800 diluted Progress bead stock, 1:400 diluted Tb stock, 80% Buffer A, and 20% Buffer B) into each well of detection plates. • 7. Transfer 6 μL of assay solution from the assay plate to the detection plate. • 8. Shake detection plates for 30 minutes. • 9. Read plates in Envision with wavelength set at excitation 340 nm for Tb, emission 490 nm, and […].

[3] = tested on: SW620 human colon cancer cells; assay: SW620 Cell Viability Assay; type: cell-based; settings: SW-620, 96 h, 4 days incubation, CellTiter-Glo Luminescent Cell Viability Assay, read-out: Cellular EC50 (μM) SW620
Procedure: SW620 Cell Viability Assay
1. Cell Plate Preparation: SW620 human colon cancer cells (known to express DYRK1B), obtained from ATCC, were seeded into 96-well plates at 3×10^3 cells/well in 50 μL of media. • Harvested the required number of cells (counts & viability determined by Guava Viacount). • Centrifuge cells to pellet and removed supernant. • Resuspended in growth media (50 μL/well) & pipetted thoroughly to break up clumps. • Setup for ˜100 wells/plate, therefore, VT=5 mL/plate @ […]. 1A. Some cells (S—) were allowed to attach for 24 hrs, serum starved for 48 hrs, and then followed with drug treatments. Test compound solution were prepared in regular corresponding media supplemented with serum. 2. Test Compound Preparation: Test compounds were solubilized in either DMSO or media and prepared at various stock concentrations. • All compounds were incubated at 37° C. for 30 minutes and vortexed. • (5 mM stocks of test compound were prepared for non-soluble compounds)
• The 10 mM test compound stock was diluted to a concentration of 100× the final Cmax concentration. • Then the test compound stock is diluted 50-fold in media and/or second compound for a final Cmax concentration in the test compound plate. • The Cmax in the test compound plate (2% DMSO) is 2-fold higher than the final Cmax in the cell plate (60 uL titrations were 1:3). 4. Viability Assay: This assay was performed as follows: • Transfer 50 μL of test compound solution per well from the test compound plate onto the cell plate prepared in Step #1. • Mix the plate with treated cells by pipetting up and down three times with 200 μL multi-channel pipette. • Incubate the cells in 5% CO2 incubator @ 37° C. for 4 days. • Run the CellTiter-Glo™ Luminescent Cell Viability Assay.
The results of this assay, given as EC50 values, indicate the concentration of test compound that inhibits tumor cell proliferation by 50%.

T1 sequence (Q9Y463 whole entry): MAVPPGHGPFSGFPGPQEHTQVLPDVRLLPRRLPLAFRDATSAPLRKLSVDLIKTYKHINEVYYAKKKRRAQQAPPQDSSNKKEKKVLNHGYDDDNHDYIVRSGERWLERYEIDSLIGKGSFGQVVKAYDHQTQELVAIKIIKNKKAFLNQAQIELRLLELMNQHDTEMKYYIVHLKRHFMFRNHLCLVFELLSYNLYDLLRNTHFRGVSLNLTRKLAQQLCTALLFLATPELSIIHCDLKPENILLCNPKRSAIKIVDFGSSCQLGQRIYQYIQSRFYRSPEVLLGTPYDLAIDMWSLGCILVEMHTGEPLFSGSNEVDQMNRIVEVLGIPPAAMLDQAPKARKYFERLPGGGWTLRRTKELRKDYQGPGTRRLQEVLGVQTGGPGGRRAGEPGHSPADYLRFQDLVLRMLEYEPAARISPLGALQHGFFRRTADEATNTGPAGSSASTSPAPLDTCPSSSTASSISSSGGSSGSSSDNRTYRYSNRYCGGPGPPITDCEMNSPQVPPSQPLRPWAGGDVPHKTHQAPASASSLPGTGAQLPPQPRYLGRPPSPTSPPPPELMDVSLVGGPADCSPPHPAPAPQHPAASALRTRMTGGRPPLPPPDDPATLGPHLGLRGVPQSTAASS

Compound | IC50 [1] | IC50 [2] | EC50 [3] | pIC50 [1]
COc1cc2[nH]c(=O)c(C(=O)Nc3cc(C(=O)NC(CCN)c4ccccc4)ccc3C)cc2cn1 (stereo not shown) [Example 61, 7-Methoxy-2-oxo-1,2-dihydro-[1,6]naphthyridine-3-carboxylic acid [5-(3-amino-1-phenyl-propylcarbamoyl)-2-methyl-phenyl]-amide; hydrochloride] | 0.155 µM | 0.034 µM | 2.27 µM | –
COc1cc2[nH]c(=O)c(C(=O)Nc3cc(C(=O)NC(CN)c4ccccc4)ccc3Cl)cc2cn1 (stereo not shown) [Example 45, 7-Methoxy-2-oxo-1,2-dihydro-[1,6]naphthyridine-3-carboxylic acid [5-(2-amino-1-phenyl-ethylcarbamoyl)-2-chloro-phenyl]-amide; hydrochloride] | 0.014 µM | 0.0115 µM | 0.177 µM | –
COc1cc2[nH]c(=O)c(C(=O)Nc3cc(C(=O)NCc4ccsc4)ccc3Cl)cc2cn1 [Example 43, 7-Methoxy-2-oxo-1,2-dihydro-[1,6]naphthyridine-3-carboxylic acid {2-chloro-5-[(thiophen-3-ylmethyl)-carbamoyl]-phenyl}-amide] | 0.041 µM | 0.028 µM | > 10 µM | –
COC(=O)c1ccc(Cl)c(NC(=O)c2cc3ccc(OC)nc3[nH]c2=O)c1 [Example 90, 4-Chloro-3-[(7-methoxy-2-oxo-1,2-dihydro-[1,8]naphthyridine-3-carbonyl)-amino]-benzoic acid methyl ester] | 0.168 µM | > 10 µM | > 10 µM | –
COc1cc2[nH]c(=O)c(C(=O)Nc3cc(C(=O)NCc4ccccc4)ccc3C)cc2cn1 [Example 33, 7-Methoxy-2-oxo-1,2-dihydro-[1,6]naphthyridine-3-carboxylic acid (5-benzylcarbamoyl-2-methyl-phenyl)-amide] | 0.484 µM | 2.15 µM | 1.47 µM | –
COc1cc2[nH]c(=O)c(C(=O)Nc3cc(C(=O)NC(CN)c4cccc(Cl)c4)ccc3C)cc2cn1 (stereo not shown) [Example 57, 7-Methoxy-2-oxo-1,2-dihydro-[1,6]naphthyridine-3-carboxylic acid {5-[2-amino-1-(3-chloro-phenyl)-ethylcarbamoyl]-2-methyl-phenyl}-amide; hydrochloride] | 0.146 µM | 0.0512 µM | 0.496 µM | –
COc1ccc2cc(C(=O)Nc3cc(C(=O)NCc4cccc(Cl)c4)ccc3C)c(=O)[nH]c2n1 [Example 99, N-(5-(3-Chlorobenzylcarbamoyl)-2-methylphenyl)-7-methoxy-2-oxo-1,2-dihydro-1,8-naphthyridine-3-carboxamide] | 0.235 µM | 0.123 µM | > 10 µM | –
COc1cc2[nH]c(=O)c(C(=O)Nc3cc(C(=O)NC(CCN)c4ccsc4)ccc3Cl)cc2cn1 (stereo not shown) [Example 53, 7-Methoxy-2-oxo-1,2-dihydro-[1,6]naphthyridine-3-carboxylic acid [5-(3-amino-1-thiophen-3-yl-propylcarbamoyl)-2-chloro-phenyl]-amide] | – | – | 0.0524 µM | 7.86
COc1cc2[nH]c(=O)c(C(=O)Nc3cc(C(=O)NC(CN)c4ccsc4)ccc3Cl)cc2cn1 (stereo not shown) [Example 71, 7-Methoxy-2-oxo-1,2-dihydro-[1,6]naphthyridine-3-carboxylic acid [5-(2-amino-1-thiophen-3-yl-ethylcarbamoyl)-2-chloro-phenyl]-amide; hydrochloride] | – | – | 0.137 µM | > 8.34
COc1cc2[nH]c(=O)c(C(=O)Nc3cc(C(=O)NC(CCN)c4ccccc4)ccc3Cl)cc2cn1 (stereo not shown) [Example 69, 7-Methoxy-2-oxo-1,2-dihydro-[1,6]naphthyridine-3-carboxylic acid [5-(3-amino-1-phenyl-propylcarbamoyl)-2-chloro-phenyl]-amide; hydrochloride] | 0.0137 µM | 0.0124 µM | 0.256 µM | –
COC(=O)c1ccc(Cl)c(NC(=O)c2cc3cnc(N4CCN(C)CC4)cc3[nH]c2=O)c1 [Example 73, 4-Chloro-3-{[7-(4-methyl-piperazin-1-yl)-2-oxo-1,2-dihydro-[1,6]naphthyridine-3-carbonyl]-amino}-benzoic acid methyl ester] | 0.96 µM | 0.425 µM | > 10 µM | –
